# Key:
# Assay in all cases: relative viability (nuclei count vs DMSO), 5 days (fraction); higher = more cells survive
# [1] = compound: C1=CC2=C(C=CC(=C2)C=C3C(=O)NC(=NCC4=CC=CS4)S3)N=C1 [RO-3306] + CS(=O)(=O)N1CCN(Cc2cc3nc(-c4cccc5[nH]ncc45)nc(N4CCOCC4)c3s2)CC1 [Pictilisib] (partner 1 µM)
# In short: (§1)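 Each reported value is a median over duplicate plates. It expresses relative viability: treated-well nuclei count divided by vehicle-well nuclei count. Lung cancer cell lines in 1536-well plates were dosed by pin tool a day after seeding, alone with one drug or with a fixed anchor-drug dose plus five library-drug doses (not always all listed) in √10 steps, and nuclei were counted after 5 days.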
# [2] = compound: O=S(=O)(c1ccccc1)N(CC(F)(F)F)c1ccc(C(O)(C(F)(F)F)C(F)(F)F)cc1 + CC1(C)CCC(c2ccc(Cl)cc2)=C(CN2CCN(c3ccc(C(=O)NS(=O)(=O)c4ccc(N[C@H](CCN5CCOCC5)CSc5ccccc5)c(S(=O)(=O)C(F)(F)F)c4)cc3)CC2)C1 [Navitoclax] (partner 0.5 µM)
# In short: as §1
# [3] = compound: C1=CC2=C(C=CC(=C2)C=C3C(=O)NC(=NCC4=CC=CS4)S3)N=C1 [RO-3306] + Cc1nc(Nc2ncc(C(=O)Nc3c(C)cccc3Cl)s2)cc(N2CCN(CCO)CC2)n1 [Dasatinib] (partner 0.075 µM)
# In short: as §1
# [4] = compound: O=S(=O)(c1ccccc1)N(CC(F)(F)F)c1ccc(C(O)(C(F)(F)F)C(F)(F)F)cc1 + C[C@@H](Oc1cc(-c2cnn(C3CCNCC3)c2)cnc1N)c1c(Cl)ccc(F)c1Cl [Crizotinib] (partner 1 µM)
# In short: as §1
cell line,measurement,setting,value
UMC-11,relative viability,[1]; first compound 0.01 µM,1.16
same,relative viability,[1]; first compound 0.03162 µM,0.729
same,relative viability,[1]; first compound 0.1 µM,0.811
same,relative viability,[1]; first compound 0.3162 µM,0.859
same,relative viability,[1]; first compound 1 µM,0.617
same,relative viability,[2]; first compound 0.8 µM,0.335
same,relative viability,[2]; first compound 2.53 µM,0.352
same,relative viability,[2]; first compound 8 µM,0.37
same,relative viability,[3]; first compound 0.01 µM,0.553
same,relative viability,[3]; first compound 0.03162 µM,0.341
same,relative viability,[3]; first compound 0.1 µM,0.432
same,relative viability,[3]; first compound 0.3162 µM,0.546
same,relative viability,[3]; first compound 1 µM,0.453
same,relative viability,[4]; first compound 0.8 µM,0.585
same,relative viability,[4]; first compound 2.53 µM,0.583
same,relative viability,[4]; first compound 8 µM,0.749

# — the supplement of paper PMC10307832
